{"source": "patent US5543410A", "about": "“Pharmacological use of phthaloylhydrazide derivatives; combination and application thereof” (L.I.M.A.D. Limited, priority 1993, dated 1996)", "key": {"[1]": {"tested_on": "piglets affected by dysentery", "assay": "dysentery in piglets", "format": "in vivo", "method": "Experiments were performed with piglets weighing from 30 to 40 kgs, which were affected by dysentery.\nNevertheless, symptoms reappeared six to seven hours later in one group of animals. This factor rendered repeated administration of the drug necessary."}, "metabolic products": {"assay": "metabolic products", "format": "in vivo", "conditions": "metabolite"}, "skin diseases": {"tested_on": "skin diseases", "conditions": "water-soluble applications and ointments"}, "[2]": {"conditions": "aqueous solutions, sodium salt"}, "[3]": {"tested_on": "proctitis attributable to radiation therapy", "conditions": "in vivo", "excerpt": "B., a patient who was […], complained of burning sensations in the anus, along with frequent and painful urination, after having received radiation therapy for a period of forty-five days. During a rectosigmoidoscopy examination, intense edema and contact hemorrhaging within the rectal mucosae were observed above the tumor. The diagnosis was: proctitis and cystitis arising from radiation therapy. On account of a lack of specific therapeutic measures, the drug was prescribed for the patient according to a dose of 100 mg per day."}, "[4]": {"tested_on": "Sprague-Dawley Rats' Lipid Metabolism and Serum Lipoproteins", "conditions": "reducing serum cholesterol; cited from earlier work"}}}
{"smiles": "Nc1ccc2c(=O)[nH][nH]c(=O)c2c1", "note": "[4-aminophthaloylhydrazide]", "values": [{"measurement": "therapeutic effect", "setting": "[1]; 10, 25, and 50 mg/kg, third series", "result": "relatively insignificant"}]}
{"smiles": "Nc1ccc(C(=O)O)c(C(=O)O)c1", "note": "[5-aminophthalic acid]", "values": [{"measurement": "excretion unmodified", "setting": "metabolic products", "result": "Most of the aminophthalic acid is expelled from the body without undergoing modification"}]}
{"smiles": "Nc1cccc2c(=O)[nH][nH]c(=O)c12", "values": [{"measurement": "time to improvement of condition, diarrhea ceased", "setting": "[1]; 50 mg/kg, first series", "result": "sixty"}, {"measurement": "time to reappearance of symptoms", "setting": "[1]; 50 mg/kg, first series, one group of animals", "result": "six to seven"}, {"measurement": "effectiveness in external use", "setting": "skin diseases", "result": "more effective"}, {"measurement": "period remaining fully active", "setting": "[2]", "result": "sixty to eighty"}, {"measurement": "effectiveness in proctitis attributable to radiation therapy", "setting": "[3]", "result": "effective for proctitis attributable to radiation therapy"}]}
{"smiles": "O=c1[nH][nH]c(=O)c2ccccc12", "note": "[2,3-dihydrophthalazine-1,4-dione]", "values": [{"measurement": "activity", "setting": "[4]", "result": "extremely high level of activity"}]}
